Data on 2 compounds can be found in US11571427B2, “Targeting the CBM signalosome complex induces regulatory T cells to inflame the tumor microenvironment” (THE GENERAL HOSPITAL CORPORATION, priority 2017, dated 2023).

Each structure is given as a SMILES string.

The subject of assay [1] is D4M.3A melanoma. The assay can be described thus: D4M.3A tumor growth in RAG1-deficient hosts. The class given is in vivo, mice. As to conditions: hosts lack lymphocytes, FIG. 4D. The source says:
Mice. Foxp3YFP-Cre (Ref. 1), Foxp3GFP-Cre-ERT2 (Ref 2), Rosa26YFP (Ref. 4), Ifng KO (Ref.5) and C57BL/6/J mice were purchased from Jackson laboratories. […] and James J. […] Animals were housed in specific pathogen-free facilities at the Massachusetts General Hospital (MGH) and all experimental studies were approved and performed in accordance with guidelines and regulations implemented by the MGH Institutional Animal Care and Use Committee (IACUC). For survival studies the age of mice at euthanasia mandated by a moribund state of health was recorded in Kaplan Meyer plots. […] Wherever possible, animals were randomized into treatment groups. Tumor volumes were measured every second to third day after start of treatments and calculated as V=(length×width^2)/2.

Assay [2] relates to whole tumor tissue. The assay can be described thus: Gene expression in whole tumor tissue (RT-qPCR). The class given is in vivo, mice. The method, then:
Quantitative RT-PCR. For analysis of gene expression, RNA was isolated (AllPrep, DNA/RNA Mini kit; Qiagen) from CD4+ GFP+ Treg sorted to >99% purity from tdFNs and tumors, or from homogenized tumor tissue, and reverse transcribed using iScript cDNA Synthesis Kit (Bio-RAD). Quantitative RT-PCR was performed using iQ SYBR green supermix (Bio-RAD) and primers: […]
Results were expressed as 2-ΔCT relative to the house keeping gene GAPDH.
For orientation: Quantitative PCR measures a nucleic acid by following its amplification.

The test system of assay [3] is Treg. The assay can be described thus: In vitro treatment of sorted YFP+ Treg with Mepazine. It is filed as cell-based, mice. Conditions: 10 μM Mepazine. The method, then: (§1) FIGS. 13A-13K. (FIG. 13A), MHC II expression on tumor-associated macrophages in D4M.3A-implanted F^Cre/+×C1^++, f/+ or f/f mice. (FIG. 13B), D4M.3A tumor growth in mice treated with depleting αCD8 Ab from day 8 and treated with mepazine or not from day 9. (FIG. 13C), D4M.3A tumor growth in F^Cre/+×C1^+/+ or f/f mice treated with Mepazine or vehicle starting on day 9. (FIG. 13D), YFP^+ Treg were sorted from F^Cre×C1^+/+ mice and treated with 10 μM Mepazine of vehicle for 8 or 24 hours with or without concurrent αCD3/28 mAb TCR stimulation (8 h time-point only) and expression of Foxp3, markers of eTreg differentiation, cell viability, and frequency of eTreg were recorded. (FIG. 13E), RT-qPCR analysis of expression of Foxp3 and various Treg-associated genes in whole tumor tissue lysate following 3 days of Mepazine or vehicle treatment. (FIGS. 13F-13J), Composition of the tumor tissue immune infiltrate and frequencies of CD45^+ cells (FIG. 13G) and of various immune cell subsets (FIG. 13H) as well Ki67 expression by Tconv (FIG. 13I) and MHC II expression by macrophages (FIG. 13J) following 3 days of Mepazine or vehicle treatment. (FIG. 13K), Effector cytokine co-expression by tumor-infiltrating Treg following 12 days Mepazine and αPD-1 Ab treatment. *=p<0.05, **=p<0.01, and ***=p<0.001. *, #=any p<0.05 vs. C1^+/+ and C1^+/++ Mepazine, resp. in FIG. 13C.

For assay [4], the system named is D4M.3A tumor cells. Description: MHC I and PD-L1 expression on tumor cells after mepazine treatment. As to conditions: within 3 days of mepazine; FIG. 4E. It is filed as in vivo, mice.
Method: (FIG. 4A) Female Foxp3^GFP-CreERT2×CARMA1^+/+ and ×CARMA1^1111 mice were implanted with D4M.3A melanoma and starting on day 9 treated with tamoxifen until the end of the experiment as well as with three doses of 200 μg of the blocking α-PD-1 antibody 29F.1A12 or isotype control antibody, and tumor growth was recorded. […] (FIGS. 4C and 4D) D4M.3A tumor growth in C57BL/6 (FIG. 4C) or RAG1-deficient hosts (FIG. 4D) treated with MALT1 inhibitors mepazine or MI-2. (FIGS. 4E-4G) Mepazine effects within 3 days on MHC I and PD-L1 expression on tumor cells (FIG. 4E), expression of genes of adaptive immune resistance (Pdl1, Socs1), MHC I antigen presentation (Tap1), IFNγ-signaling (Stat1, Irf1), T cell recruitment (CXCL10), M1 macrophage activation (Nos2), and cytotoxicity (Gzmb) (FIG. 4F), as well as the frequency of CD4^+ and CD8^+ T cells (FIG. 4G). […] All graphs show means and either individual replicates or ±SEM.
Preparation of single cell suspensions, antibody staining and flow cytometry. […]
Preceding antibody staining, Fc receptors were blocked with TruStain fcX (Biolegend) for 20 minutes at 4° C., followed by dead cells staining using the fixable viability violet dye Zombie Red (Biolegend) for 15 minutes at room temperature. Cells were analyzed on LSRII, LSRFortessa or LSRFortessa X-20 flow cytometers (BD Biosciences), and data were analyzed with FlowJo software version 9.9.5.
In assay [5] the test system is D4M.3A melanoma. Description: D4M.3A tumor growth in F^Cre/+×C1^+/+ or f/f mice treated with Mepazine or vehicle. It is filed as in vivo. As to conditions: Mepazine from day 9, FIG. 13C. The method, then: as §1, with “(FIG. 13K), Effector cytokine co-expression by tumor-infiltrating Treg following 12 days Mepazine and αPD-1 Ab treatment. *=p<0.05, **=p<0.01, and ***=p<0.001. *, #=any p<0.05 vs. C1^+/+ and C1^+/++ Mepazine, resp. in FIG. 13C.” left out
Tumor growth studies and treatments. […] Tumor volumes were measured every second to third day after start of treatments and calculated as V=(length×width^2)/2. […]

The test system of assay [6] is tumor-infiltrating Treg. The assay can be described thus: In situ effector cytokine expression and frequency of tumor-infiltrating Treg (flow cytometry). It is filed as in vivo, mice. As to conditions: within 3 days of mepazine, FIG. 14K. The method, then:
Preparation of single cell suspensions, antibody staining and flow cytometry. Heparinized peripheral blood collected through sub-mandibular vein puncture was treated with ACK red blood cell lysis buffer. LNs and spleens were passed through 40 μm cell strainers, followed by red blood cell lysis (spleens only). Tumors were minced into small fragments and treated with 1.5 mg/ml collagenase IV and 50 U/ml DNAse I for 30 min. at 37° C. under agitation.
Intracellular and nuclear proteins were stained for 60 minutes at room temperature after permeabilization and fixation (Mouse regulatory T cell staining Kit; eBioscience) using antibodies against: CD152/CTLA-4-(UC10-4B9), TNF (MP6-XT22), IL-4 (11B11), IL-17A (TC11-18H10.1), IFNγ (XMG1.2), and Ki67 (16A8) (BD Biosciences), BIM (C34C5), CARD11/CARMA1 (1D12) (Cell Signaling), Foxp3 (FJK-16s, eBioscience), GFP (rabbit polyclonal, Invitrogen). Polyclonal goat α-rabbit Ig (H+L) secondary antibody (Life Technologies) was used to reveal primary α-CARMA1 staining.
(§2) Preceding antibody staining, Fc receptors were blocked with TruStain fcX (Biolegend) for 20 minutes at 4° C., followed by dead cells staining using the fixable viability violet dye […] (Biolegend) for 15 minutes at room temperature. Cells were analyzed on LSRII, LSRFortessa or LSRFortessa X-20 flow cytometers (BD Biosciences), and data were analyzed with FlowJo software version 9.9.5.
Analysis of in situ and ex vivo stimulated cytokine secretion. To detect in situ cytokine secretion, mice were slowly i.v. injected with 500 μg of fully dissolved Brefeldin A in 250 μl PBS 6 h before sacrifice and intracellular cytokine staining.

Assay [7] has as its system tumor tissue immune infiltrate. The assay can be described thus: Composition of the tumor tissue immune infiltrate. It is filed as in vivo, mice. As to conditions: 3 days of Mepazine or vehicle; FIGS. 13F-13J. The method, then: as §1
Preparation of single cell suspensions, antibody staining and flow cytometry. Heparinized peripheral blood collected through sub-mandibular vein puncture was treated with ACK red blood cell lysis buffer. LNs and spleens were passed through 40 μm cell strainers, followed by red blood cell lysis (spleens only). […]
as §2

On to `COCCOc1nc(-c2ccc(Cl)c(Cl)c2)n(-c2ccc(NC(=O)CCl)cc2)n1` [MI-2], for which the “tumor growth in Rag1-deficient mice” value in assay [1] was “no effect on tumor growth”.

In the case of `CN1CCCC(CN2c3ccccc3Sc3ccccc32)C1` (stereo not shown) [mepazine], in assay [2] (3 days of Mepazine or vehicle, FIG. 13E), the “expression of Treg-associated genes in tumor tissue” value was “not altered”. Besides, the “IFN-γ-regulated genes in whole tumor tissue” value in assay [2] (3 days of mepazine) is given as “induction of a wide range of IFN-γ-regulated genes”. For the same compound, in assay [3] (8 or 24 hours, FIG. 13D), the “Foxp3 expression of Treg in vitro” value is listed as “only a minor reduction” and the “GITR expression of Treg in vitro” value is “only a minor reduction”. In addition, the “effector cytokine expression of Treg in vitro” value in assay [3] (not shown) is reported as “no effector cytokine expression”. In addition, in assay [4], the “MHC I expression on tumor cells” value is on record as “up-regulation” and the “PD-L1-expression on tumor cells” value was “up-regulation”. Moreover, the “addition to anti-tumor effect of CARMA1-deletion in Treg” value in assay [5] is recorded as “did not add to the anti-tumor effect of CARMA1-deletion in Treg”. For the same compound, the “tumor growth in Rag1-deficient mice” value in assay [1] is “no effect on tumor growth”. Further, in assay [6] (in situ), the “IFNγ-expression by tumor-infiltrating Treg” value is “rapid induction” and the “TNF-expression by tumor-infiltrating Treg” value is on record as “rapid induction”. The “Treg frequency in tumor” value in assay [6] is recorded as “did not reduce Treg frequency”. In assay [7], the “frequency of CTL in tumor tissue” value is listed as “increased”, the “frequency of NK cells in tumor tissue” value is given as “increased” and the “immune cell infiltration of tumor tissue” value was “generally enhanced”.
